{
  "source": "patent US7687643B2",
  "about": "“Process for preparing 3,3-dimethylindolines” (Amgen Inc., priority 2001, dated 2010)",
  "data": [
    {"test_system": "Human Umbilical Vein Endothelial cells (VEGF-stimulated)", "experiment": "HUVEC proliferation assay, VEGF-stimulated", "assay_type": "cell-based", "settings": "VEGF 50 ng/mL, 72 h, CyQuant, read-out: inhibited VEGF-stimulated HUVEC proliferation at a level", "in_short": "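Pooled-donor HUVECs (passage 2–3) seeded in DMEM+10% FBS for 22 h, then pre-treated 2–3 h with five-point, five-fold compound dilutions (0.25% DMSO final). Stimulated with 50 ng/mL VEGF (bFGF 20 ng/mL on separate plates) for 72 h at 37 °C. CyQuant fluorescence (485/530 nm) after freeze-thaw; IC50 from 4-parameter fit.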", "units": {"IC50": "nM"}, "values": [
      {"smiles": "CC(=O)N1CC(C)(C)c2ccc(NC(=O)c3cccnc3Nc3ccc4c(c3)OCCO4)cc21", "note": "[Example 991, N-(1-Acetyl-3,3-dimethyl-2,3-dihydro-1H-indol-6-yl)-2-(2,3-dihydro-benzo[1,4]dioxin-6-ylamino)-nicotinamide]", "IC50": "< 50"},
      {"smiles": "CC1(C)CNCc2cc(NC(=O)c3cccnc3NCc3ccc4ncccc4c3)ccc21", "note": "[Example 1061, N-(4,4-dimethyl-1,2,3,4-tetrahydro-7-isoquinolinyl)-2-((6-quinolinylmethyl)amino)-3-pyridinecarboxamide]", "IC50": "< 50"},
      {"smiles": "COc1cc(CNc2ncccc2C(=O)Nc2ccc(C(C)(C)C)c(OC[C@@H]3CCCN3)c2)ccn1", "note": "[Example 1067, N-(4-(1,1-dimethylethyl)-3-(((2S)-2-pyrrolidinylmethyl)oxy)phenyl)-2-(((2-(methyloxy)-4-pyridinyl)methyl)amino)-3-pyridinecarboxamide]", "IC50": "< 50"},
      {"smiles": "CC(C)c1ccc(NC(=O)c2cccnc2NCc2ccc3ocnc3c2)cc1", "note": "[Example 1120, 2-((1,3-Benzoxazol-5-ylmethyl)amino)-N-(4-(1-methylethyl)phenyl)-3-pyridinecarboxamide]", "IC50": "< 50"},
      {"smiles": "CN1CCC(CCCOc2cc(CNc3ncccc3C(=O)Nc3ccc(C(F)(F)F)cc3)ccn2)CC1", "note": "[Example 922, 2-({2-[3-(1-Methyl-piperidin-4-yl)-propoxy]-pyridin-4-ylmethyl}-amino)-N-(4-trifluoromethyl-phenyl)-nicotinamide]", "IC50": "< 50"},
      {"smiles": "CN(C)CC(=O)Nc1cc(NC(=O)c2cccnc2NCc2ccnc3ccccc23)ccc1C(C)(C)C", "note": "[Example 1072, N-(4-(1,1-dimethylethyl)-3-((N,N-dimethylglycyl)amino)phenyl)-2-((4-quinolinylmethyl)amino)-3-pyridinecarboxamide]", "IC50": "< 50"},
      {"smiles": "CC1(C)Oc2ccc(NC(=O)c3cccnc3NCc3ccncc3)cc2NC1=O", "note": "[Example 944, N-(2,2-Dimethyl-3-oxo-3,4-dihydro-2H-benzo[1,4]oxazin-6-yl)-2-[(pyridin-4-ylmethyl)-amino]-nicotinamide]", "IC50": "< 50"},
      {"smiles": "CC(C)(C)c1ccc(NC(=O)c2cccnc2NCc2ccc3c(c2)CCO3)cc1", "note": "[Example 826, N-[4-(tert-Butyl)phenyl]{2-[(2,3-dihydrobenzo[b]furan-5-ylmethyl)amino](3-pyridyl)}carboxamide]", "IC50": "< 50"},
      {"smiles": "CCOC(=O)N1CC2(CC2)c2ccc(NC(=O)c3cccnc3NCc3ccnc(NC)c3)cc21", "note": "[Example 1106, Ethyl [1,2-dihydro-6-({2-[(2-methylamino-pyridin-4-ylmethyl)-amino]-pyridine-3-carbonyl}-amino)-3-spiro-1′-cyclopropyl-1H-indole]-1-carbamate]", "IC50": "< 50"},
      {"smiles": "COC(=O)C(C)(C)c1ccc(NC(=O)c2cccnc2NCc2ccncc2)cc1", "note": "[Example 985, 2-Methyl-2-[4-({2-[(pyridin-4-ylmethyl)-amino]-pyridine-3-carbonyl}-amino)-phenyl]-propionic acid methyl ester]", "IC50": "< 50"},
      {"smiles": "CNc1cc(CNc2ncccc2C(=O)Nc2cc(Cl)cc(NC(=O)CN(C)C)c2)ccn1", "note": "[Example 1149, N-[3-Chloro-5-(2-dimethylamino-acetylamino)-phenyl]-2-[(2-methylamino-pyridin-4-ylmethyl)-amino]-nicotinamide]", "IC50": "< 50"},
      {"smiles": "CN1CCC[C@@H]1COc1cc(NC(=O)c2cccnc2NCc2ccncc2)cc(C(F)(F)F)c1", "note": "[Example 917, (R) N-[3-(1-Methyl-pyrrolidin-2-ylmethoxy)-5-trifluoromethyl-phenyl]-2-[(pyridin-4-ylmethyl)-amino]-nicotinamide]", "IC50": "< 50"},
      {"smiles": "CNc1nccc(CNc2ncccc2C(=O)Nc2ccc3c(c2)N(S(C)(=O)=O)CC3(C)C)n1", "note": "[Example 1060, N-(3,3-dimethyl-1-(methylsulfonyl)-2,3-dihydro-1H-indol-6-yl)-2-(((2-(methylamino)-4-pyrimidinyl)methyl)amino)-3-pyridinecarboxamide]", "IC50": "< 50"},
      {"smiles": "CNc1nccc(CNc2ncccc2C(=O)Nc2ccc3c(c2)NCCC3(C)C)n1", "note": "[Example 1112, N-(4,4-Dimethyl-1,2,3,4-tetrahydro-quinolin-7-yl)-2-[(2-methylamino-pyrimidin-4-ylmethyl)-amino]-nicotinamide]", "IC50": "< 50"},
      {"smiles": "CNc1nccc(CNc2ncccc2C(=O)Nc2ccc(C(C)(C)C)c(NC(=O)CN(C)C)c2)n1", "note": "[Example 1077, N-(4-(1,1-dimethylethyl)-3-((N,N-dimethylglycyl)amino)phenyl)-2-(((2-(methylamino)-4-pyrimidinyl)methyl)amino)-3-pyridinecarboxamide]", "IC50": "< 50"},
      {"smiles": "COc1nccc(CNc2ncccc2C(=O)Nc2ccc3c(c2)CNCC3(C)C)n1", "note": "[Example 1132, N-(4,4-Dimethyl-1,2,3,4-tetrahydro-isoquinolin-7-yl)-2-[(2-methoxy-pyrimidin-4-ylmethyl)-amino]-nicotinamide]", "IC50": "< 50"},
      {"smiles": "CNc1nccc(CNc2ncccc2C(=O)Nc2cc(NC(=O)O[C@H]3CCOC3)cc(C(F)(F)F)c2)n1", "note": "[Example 1089, (3S)-tetrahydro-3-furanyl 3-(((2-(((2-(methylamino)-4-pyrimidinyl)methyl)amino)-3-pyridinyl)carbonyl)amino)-5-(trifluoromethyl)phenylcarbamate]", "IC50": "< 50"},
      {"smiles": "CNc1nccc(CNc2ncccc2C(=O)Nc2cc(NS(C)(=O)=O)cc(C(F)(F)F)c2)n1", "note": "[Example 1093, 2-(((2-(methylamino)-4-pyrimidinyl)methyl)amino)-N-(3-((methylsulfonyl)amino)-5-(trifluoromethyl)phenyl)-3-pyridinecarboxamide]", "IC50": "< 50"},
      {"smiles": "CN(C)CCOCCOc1cc(CNc2ncccc2C(=O)Nc2ccc(C(C)(C)C)cc2)ccn1", "note": "[Example 151, (2-{[(2-{2-[2-(Dimethylamino)ethoxy]ethoxy}(4-pyridyl))methyl]amino}(3-pyridyl))-N-[4-(tert-butyl)phenyl]carboxamide]", "IC50": "< 50"},
      {"smiles": "CNc1cc(CNc2ncccc2C(=O)Nc2ccc3c(c2)NCCC3(C)C)ccn1", "note": "[Example 1194]", "IC50": "< 50"},
      {"smiles": "O=C(Nc1ccc(Cl)cc1)c1cccnc1NCc1ccc2ncccc2c1", "note": "[Example 21, N-(4-Chlorophenyl){2-[(6-quinolylmethyl)amino](3-pyridyl)}carboxamide]", "IC50": "< 50"},
      {"smiles": "O=C(Nc1cc(NC(=O)c2cccnc2NCc2ccncc2)cc(C(F)(F)F)c1)O[C@H]1CCOC1", "note": "[Example 1088, (3S)-tetrahydro-3-furanyl 3-(((2-((4-pyridinylmethyl)amino)-3-pyridinyl)carbonyl)amino)-5-(trifluoromethyl)phenylcarbamate]", "IC50": "< 50"},
      {"smiles": "O=C(Nc1ccc(-c2ccccc2)cc1)c1cccnc1NCc1ccncc1", "note": "[Example 159, N-(4-Biphenyl){2-[(4-pyridylmethyl)amino](3-pyridyl)}carboxamide]", "IC50": "< 50"},
      {"smiles": "CC1(C)CNCc2cc(NC(=O)c3cccnc3NCc3ccnc4c3CCN4)ccc21", "note": "[Example 1147, 2-[(2,3-Dihydro-1H-pyrrolo[2,3-b]pyridin-4-ylmethyl)-amino]-N-(4,4-dimethyl-1,2,3,4-tetrahydro-isoquinolin-7-yl)-nicotinamide]", "IC50": "< 50"},
      {"smiles": "CNc1nccc(CNc2ncccc2C(=O)Nc2cc(O[C@@H]3CCOC3)cc(C(F)(F)F)c2)n1", "note": "[Example 1084, 2-(((2-(methylamino)-4-pyrimidinyl)methyl)amino)-N-(3-((3R)-tetrahydro-3-furanyloxy)-5-(trifluoromethyl)phenyl)-3-pyridinecarboxamide]", "IC50": "< 50"},
      {"smiles": "CNc1nccc(CNc2ncccc2C(=O)Nc2ccc3c(n2)NC(=O)CC3(C)C)n1", "note": "[Example 1135, N-(5,5-Dimethyl-7-oxo-5,6,7,8-tetrahydro-[1,8]naphthyridin-2-yl)-2-[(2-methylamino-pyrimidin-4-ylmethyl)-amino]-nicotinamide]", "IC50": "< 50"},
      {"smiles": "O=C(Nc1ccc(Cl)c(Cl)c1)c1cccnc1NCc1ccncc1", "note": "[Example 4, N-(3,4-Dichlorophenyl){2-[(4-pyridylmethyl)amino](3-pyridyl)}-carboxamide]", "IC50": "< 50"},
      {"smiles": "CN1CCC[C@H]1COc1cc(NC(=O)c2cccnc2NCc2ccncn2)cc(C(F)(F)F)c1", "note": "[Example 1025, N-(3-((((2S)-1-Methyl-2-pyrrolidinyl)methyl)oxy)-5-(trifluoromethyl)phenyl)-2-((4-pyrimidinylmethyl)amino)-3-pyridinecarboxamide]", "IC50": "< 50"},
      {"smiles": "CCOC(=O)N1CC2(CC2)c2ccc(NC(=O)c3cccnc3NCc3ccnc(NC)n3)cc21", "note": "[Example 1108, Ethyl [1,2-dihydro-6-({2-[(2-methylamino-pyrimidin-4-ylmethyl)-amino]-pyridine-3-carbonyl}-amino)-3-spiro-1′-cyclopropyl-1H-indole]-1-carbamate]", "IC50": "< 50"},
      {"smiles": "CC(C)(C)c1ccc(NC(=O)c2ccc(F)nc2NCc2ccncc2)cc1", "note": "[Example 154, N-[4-(tert-Butyl)phenyl]{6-fluoro-2-[(4-pyridylmethyl)amino](3-pyridyl)}carboxamide]", "IC50": "< 50"},
      {"smiles": "CC(C)c1ccc(NC(=O)c2cccnc2NCc2ccncc2)cc1", "note": "[Example 25, N-(4-Isopropylphenyl){2-[(4-pyridylmethyl)amino](3-pyridyl)}carboxamide]", "IC50": "< 50"},
      {"smiles": "CC1(C)CNC(=O)c2cc(NC(=O)c3cccnc3NCc3ccncc3)ccc21", "note": "[Example 946, N-(4,4-Dimethyl-1-oxo-1,2,3,4-tetrahydro-isoquinolin-7-yl)-2-[(pyridin-4-ylmethyl)-amino]-nicotinamide]", "IC50": "< 50"},
      {"smiles": "O=C(Nc1cccc(C(F)(F)F)c1)c1cccnc1NCc1ccc2c(c1)CCO2", "note": "[Example 827, {2-[(2,3-Dihydrobenzo[b]furan-5-ylmethyl)amino](3-pyridyl)}-N-[3-(trifluoromethyl)phenyl]carboxamide]", "IC50": "< 50"},
      {"smiles": "CNc1cc(CNc2ncccc2C(=O)Nc2ccc3c(c2)N(S(C)(=O)=O)CC3(C)C)ccn1", "note": "[Example 1058, N-(3,3-dimethyl-1-(methylsulfonyl)-2,3-dihydro-1H-indol-6-yl)-2-(((2-(methylamino)-4-pyridinyl)methyl)amino)-3-pyridinecarboxamide]", "IC50": "< 50"}
    ]}
  ]
}
